In BigSolDB 2.1:

Compound: Cc1[nH]nc2cc([N+](=O)[O-])ccc12
- solubility (mole fraction) (in DMF, 278.15 K): 0.149
- solubility (mole fraction) (in DMF, 283.15 K): 0.161
- solubility (mole fraction) (in DMF, 288.15 K): 0.177
- solubility (mole fraction) (in DMF, 293.15 K): 0.195
- solubility (mole fraction) (in DMF, 298.15 K): 0.215
- solubility (mole fraction) (in DMF, 303.15 K): 0.236
- solubility (mole fraction) (in DMF, 308.15 K): 0.259
- solubility (mole fraction) (in DMF, 313.15 K): 0.283
- solubility (mole fraction) (in DMF, 318.15 K): 0.309
- solubility (mole fraction) (in DMF, 323.15 K): 0.337
- solubility (mole fraction) (in DMF, 328.15 K): 0.371
- solubility (mole fraction) (in THF, 278.15 K): 0.0579
- solubility (mole fraction) (in THF, 283.15 K): 0.0615
- solubility (mole fraction) (in THF, 288.15 K): 0.0671
- solubility (mole fraction) (in THF, 293.15 K): 0.0726
- solubility (mole fraction) (in THF, 298.15 K): 0.0781
- solubility (mole fraction) (in THF, 303.15 K): 0.0845
- solubility (mole fraction) (in THF, 308.15 K): 0.0903
- solubility (mole fraction) (in THF, 313.15 K): 0.097
- solubility (mole fraction) (in THF, 318.15 K): 0.105
- solubility (mole fraction) (in THF, 323.15 K): 0.113
- solubility (mole fraction) (in THF, 328.15 K): 0.123
- solubility (mole fraction) (in acetone, 278.15 K): 0.0251
- solubility (mole fraction) (in acetone, 283.15 K): 0.0295
- solubility (mole fraction) (in acetone, 288.15 K): 0.0336
- solubility (mole fraction) (in acetone, 293.15 K): 0.0382
- solubility (mole fraction) (in acetone, 298.15 K): 0.0433
- solubility (mole fraction) (in acetone, 303.15 K): 0.0481
- solubility (mole fraction) (in acetone, 308.15 K): 0.0538
- solubility (mole fraction) (in acetone, 313.15 K): 0.0595
- solubility (mole fraction) (in acetone, 318.15 K): 0.0661
- solubility (mole fraction) (in acetone, 323.15 K): 0.0738
- solubility (mole fraction) (in acetone, 328.15 K): 0.0829
- solubility (mole fraction) (in acetonitrile, 278.15 K): 0.0093
- solubility (mole fraction) (in acetonitrile, 283.15 K): 0.0109
- solubility (mole fraction) (in acetonitrile, 288.15 K): 0.0123
- solubility (mole fraction) (in acetonitrile, 293.15 K): 0.0139
- solubility (mole fraction) (in acetonitrile, 298.15 K): 0.0156
- solubility (mole fraction) (in acetonitrile, 303.15 K): 0.0174
- solubility (mole fraction) (in acetonitrile, 308.15 K): 0.019
- solubility (mole fraction) (in acetonitrile, 313.15 K): 0.0206
- solubility (mole fraction) (in acetonitrile, 318.15 K): 0.0222
- solubility (mole fraction) (in acetonitrile, 323.15 K): 0.0239
- solubility (mole fraction) (in acetonitrile, 328.15 K): 0.0254
- solubility (mole fraction) (in ethanol, 278.15 K): 0.0042
- solubility (mole fraction) (in ethanol, 283.15 K): 0.0051
- solubility (mole fraction) (in ethanol, 288.15 K): 0.0059
- solubility (mole fraction) (in ethanol, 293.15 K): 0.007
- solubility (mole fraction) (in ethanol, 298.15 K): 0.0083
- solubility (mole fraction) (in ethanol, 303.15 K): 0.01
- solubility (mole fraction) (in ethanol, 308.15 K): 0.012
- solubility (mole fraction) (in ethanol, 313.15 K): 0.014
- solubility (mole fraction) (in ethanol, 318.15 K): 0.0164
- solubility (mole fraction) (in ethanol, 323.15 K): 0.0194
- solubility (mole fraction) (in ethanol, 328.15 K): 0.0227
- solubility (mole fraction) (in ethyl acetate, 278.15 K): 0.016
- solubility (mole fraction) (in ethyl acetate, 283.15 K): 0.0183
- solubility (mole fraction) (in ethyl acetate, 288.15 K): 0.021
- solubility (mole fraction) (in ethyl acetate, 293.15 K): 0.0232
- solubility (mole fraction) (in ethyl acetate, 298.15 K): 0.0255
- solubility (mole fraction) (in ethyl acetate, 303.15 K): 0.0295
- solubility (mole fraction) (in ethyl acetate, 308.15 K): 0.0328
- solubility (mole fraction) (in ethyl acetate, 313.15 K): 0.0363
- solubility (mole fraction) (in ethyl acetate, 318.15 K): 0.0394
- solubility (mole fraction) (in ethyl acetate, 323.15 K): 0.043
- solubility (mole fraction) (in ethyl acetate, 328.15 K): 0.0456
- solubility (mole fraction) (in n-propanol, 278.15 K): 0.0051
- solubility (mole fraction) (in n-propanol, 283.15 K): 0.0061
- solubility (mole fraction) (in n-propanol, 288.15 K): 0.0073
- solubility (mole fraction) (in n-propanol, 293.15 K): 0.0084
- solubility (mole fraction) (in n-propanol, 298.15 K): 0.0096
- solubility (mole fraction) (in n-propanol, 303.15 K): 0.0108
- solubility (mole fraction) (in n-propanol, 308.15 K): 0.012
- solubility (mole fraction) (in n-propanol, 313.15 K): 0.0136
- solubility (mole fraction) (in n-propanol, 318.15 K): 0.0155
- solubility (mole fraction) (in n-propanol, 323.15 K): 0.0176
- solubility (mole fraction) (in n-propanol, 328.15 K): 0.0204
- solubility (mole fraction) (in water, 278.15 K): 2.1e-05
- solubility (mole fraction) (in water, 283.15 K): 2.7e-05
- solubility (mole fraction) (in water, 288.15 K): 3.6e-05
- solubility (mole fraction) (in water, 293.15 K): 4.71e-05
- solubility (mole fraction) (in water, 298.15 K): 6.31e-05
- solubility (mole fraction) (in water, 303.15 K): 8.01e-05
- solubility (mole fraction) (in water, 308.15 K): 9.91e-05
- solubility (mole fraction) (in water, 313.15 K): 0.000123
- solubility (mole fraction) (in water, 318.15 K): 0.000147
- solubility (mole fraction) (in water, 323.15 K): 0.000179
- solubility (mole fraction) (in water, 328.15 K): 0.000218
